Series [1] in a line: molar enthalpy of vaporization or sublimation. The settings on record: 298 K; Liquid; DSC.
For series [2] the following is noted: for vapor or sublimation pressure: Liquid, Gas chromatography.
The nature of series [3]: Molar enthalpy of transition or fusion. The settings on record: DSC.

The values that follow come from the NIST ThermoML archive (doi:10.1021/je500358r).

± gives the expanded uncertainty stated by the source.

As for `CCCCCCCCCCCCCCN(C)C` [1-tetradecanamine, N,N-dimethyl-], in series [1], the molar enthalpy was found to be 77.3 ± 4.2 kJ/mol. In addition, the “vapor or sublimation pressure” value was 1.7e-05 ± 2e-06 kPa in series [2] (283.15 K); 3.1e-05 ± 3e-06 kPa in series [2] (288.15 K); 5.4e-05 ± 5e-06 kPa in series [2] (293.15 K); 9.2e-05 ± 9e-06 kPa in series [2] (298.15 K); 0.000153 ± 1.5e-05 kPa in series [2] (303.15 K); 0.000253 ± 2.5e-05 kPa in series [2] (308.15 K). The “vapor or sublimation pressure” value in series [2] (313.15 K) is recorded as 0.00041 ± 4.1e-05 kPa.
As to `CCN(CCCc1ccccc1)CCCc1ccccc1` [N-ethyl-3-phenyl-N-(3-phenylpropyl)propan-1-amine], the molar enthalpy in series [1] turned out to be 89.3 ± 2.8 kJ/mol. The “vapor or sublimation pressure” value is 2e-07 ± 1e-07 kPa in series [2] (283.15 K); 4e-07 ± 1e-07 kPa in series [2] (288.15 K); 7e-07 ± 1e-07 kPa in series [2] (293.15 K); 1.4e-06 ± 2e-07 kPa in series [2] (298.15 K); 2.5e-06 ± 3e-07 kPa in series [2] (303.15 K); 4.5e-06 ± 5e-07 kPa in series [2] (308.15 K). In addition, in series [2] (313.15 K), the “vapor or sublimation pressure” value amounted to 7.8e-06 ± 8e-07 kPa.
On to `C[C@@H](Cc1ccccc1)N(C)Cc1ccccc1` [(S)-N-benzyl-N-methyl-1-phenylpropan-2-amine], for which the molar enthalpy in series [1] was 77.2 ± 2.3 kJ/mol. Also, the “vapor or sublimation pressure” value in series [2] (283.15 K) was determined as 8e-06 ± 1e-06 kPa; in series [2] (288.15 K) it was 1.4e-05 ± 2e-06 kPa; in series [2] (293.15 K), 2.4e-05 ± 2e-06 kPa; in series [2] (298.15 K), 4e-05 ± 4e-06 kPa; in series [2] (303.15 K), 6.7e-05 ± 7e-06 kPa; in series [2] (308.15 K) it was 0.000111 ± 1.1e-05 kPa. In series [2] (313.15 K), the “vapor or sublimation pressure” value was found to be 0.000179 ± 1.8e-05 kPa.
With `CCCCCCCCCCCCCCCCN(C)C` [1-hexadecanamine, N,N-dimethyl-], the molar enthalpy in series [1] turned out to be 84.8 ± 12 kJ/mol. For the same compound, the “vapor or sublimation pressure” value amounted to 2e-06 ± 1e-06 kPa in series [2] (283.15 K); 3e-06 ± 1e-06 kPa in series [2] (288.15 K); 6e-06 ± 1e-06 kPa in series [2] (293.15 K); 1.1e-05 ± 1e-06 kPa in series [2] (298.15 K); 1.9e-05 ± 2e-06 kPa in series [2] (303.15 K); 3.2e-05 ± 3e-06 kPa in series [2] (308.15 K). Further, in series [2] (313.15 K), the “vapor or sublimation pressure” value came out at 5.5e-05 ± 6e-06 kPa.
In the case of `CCCCN(CCCC)CCCC` [tributylamine], in series [1], the molar enthalpy is 58 ± 4.1 kJ/mol. Further, the “vapor or sublimation pressure” value in series [2] (283.15 K) is recorded as 0.008 ± 0.001 kPa; in series [2] (288.15 K) it was 0.013 ± 0.001 kPa; in series [2] (293.15 K), 0.019 ± 0.002 kPa; in series [2] (298.15 K), 0.028 ± 0.003 kPa; in series [2] (303.15 K), 0.042 ± 0.004 kPa; in series [2] (308.15 K), 0.06 ± 0.006 kPa. Besides, the “vapor or sublimation pressure” value in series [2] (313.15 K) was determined as 0.087 ± 0.009 kPa.
In the case of `CCCN(CCC)CCC` [tripropylamine], the “vapor or sublimation pressure” value in series [2] (283.15 K) stood at 0.199 ± 0.02 kPa; in series [2] (288.15 K), 0.278 ± 0.028 kPa; in series [2] (293.15 K), 0.384 ± 0.038 kPa; in series [2] (298.15 K) it was 0.524 ± 0.052 kPa; in series [2] (303.15 K), 0.709 ± 0.071 kPa; in series [2] (308.15 K) it was 0.949 ± 0.095 kPa. Also, the “vapor or sublimation pressure” value in series [2] (313.15 K) stood at 1.259 ± 0.13 kPa.
Regarding `CC(C)CN(CC(C)C)CC(C)C` [triisobutylamine], in series [1], the molar enthalpy amounted to 52.3 ± 4.6 kJ/mol. In addition, the “vapor or sublimation pressure” value was 0.037 ± 0.004 kPa in series [2] (283.15 K); 0.055 ± 0.006 kPa in series [2] (288.15 K); 0.079 ± 0.008 kPa in series [2] (293.15 K); 0.113 ± 0.011 kPa in series [2] (298.15 K); 0.159 ± 0.016 kPa in series [2] (303.15 K); 0.222 ± 0.022 kPa in series [2] (308.15 K). For the same compound, the “vapor or sublimation pressure” value in series [2] (313.15 K) stood at 0.306 ± 0.031 kPa.
On to `C#CCN(C)[C@H](C)Cc1ccccc1` [(R)-N-methyl-N-(1-phenylpropan-2-yl)prop-2-yn-1-amine], for which the molar enthalpy in series [1] came out at 64.3 ± 4.7 kJ/mol. The “vapor or sublimation pressure” value is on record as 0.0006 ± 0.0001 kPa in series [2] (283.15 K); 0.001 ± 0.0001 kPa in series [2] (288.15 K); 0.0016 ± 0.0002 kPa in series [2] (293.15 K); 0.0025 ± 0.0003 kPa in series [2] (298.15 K); 0.0038 ± 0.0004 kPa in series [2] (303.15 K); 0.0058 ± 0.0006 kPa in series [2] (308.15 K). The “vapor or sublimation pressure” value in series [2] (313.15 K) was found to be 0.0086 ± 0.0009 kPa.
For `c1ccc(CN(Cc2ccccc2)Cc2ccccc2)cc1` [benzenemethanamine, N,N-bis(phenylmethyl)-], in series [1], the molar enthalpy was 92.4 ± 3.5 kJ/mol. Moreover, the “Molar enthalpy of transition or fusion” value in series [3] (Crystal 1) worked out at 23 ± 0.53 kJ/mol; in series [3] (Crystal 2), 1.1 ± 0.21 kJ/mol. Further, the “vapor or sublimation pressure” value in series [2] (283.15 K) was determined as 7e-08 ± 2e-08 kPa; in series [2] (288.15 K), 1.4e-07 ± 2e-08 kPa; in series [2] (293.15 K) it was 2.7e-07 ± 4e-08 kPa; in series [2] (298.15 K), 5e-07 ± 6e-08 kPa; in series [2] (303.15 K), 9.3e-07 ± 1e-07 kPa; in series [2] (308.15 K), 1.7e-06 ± 1.8e-07 kPa. The “vapor or sublimation pressure” value in series [2] (313.15 K) came out at 3.03e-06 ± 3.1e-07 kPa. Also, the Normal melting temperature in series [2] (Crystal 1, DTA) amounted to 92.5 ± 0.4 °C. The Triple point temperature in series [2] (Crystal 2, DTA) is 342.5 ± 0.9 K.
Consider `CCCCCCCCN(CCCCCCCC)CCCCCCCC` [trioctylamine], for which the molar enthalpy in series [1] was found to be 100 ± 3.5 kJ/mol. In addition, the “vapor or sublimation pressure” value in series [2] (283.15 K) turned out to be 2e-08 ± 1e-08 kPa; in series [2] (288.15 K) it was 3e-08 ± 1e-08 kPa; in series [2] (293.15 K), 7e-08 ± 2e-08 kPa; in series [2] (298.15 K), 1.4e-07 ± 2e-08 kPa; in series [2] (303.15 K), 2.8e-07 ± 4e-08 kPa; in series [2] (308.15 K), 5.3e-07 ± 6e-08 kPa. Besides, the “vapor or sublimation pressure” value in series [2] (313.15 K) is 1e-06 ± 1.1e-07 kPa.

One may read the vapor or sublimation pressure as the equilibrium pressure above the liquid or solid.
